# In US8859508B2, “Application of 5-methyl-1,3-benzenediol or derivatives thereof in the preparation of medicines and functional foods for treatment or prevention of depression” (Kunming Institute of Botany, Chinese Academy of Sciences, priority 2007, dated 2014):
# Entries after “also recorded” stand apart in the source; their conditions may differ.
# What was measured:
# [1] = system: serum corticosterone; test: Serum corticosterone level (radioimmunoassay), non-stressed and elevated platform stressed rats; assay type: in vivo, rat
# [2] = system: Kunming mice; test: Morris water maze (MWM) in mice; assay type: in vivo, mouse
# Description: Kunming mice (Certificate Number: A4CXK(Chuan)2003-16) from the Institute of Experimental Animals, People's Hospital of Sichuan Province, were used. They were 3-4 weeks old at the beginning of the experiment and weighed 25-30 g. ORG was prepared as described in Example 1. Animals were divided into drug administration groups with fluoxetine or different doses of ORG and a vehicle control group. The drug administration groups received 1.75 mg/kg or 3.5 mg/kg of ORG or 15 mg/kg of fluoxetine. Animals received a single i.p. injection of drug or vehicle 30 min either after training every day or 30 min before the retention test on day 8.
# Morris water maze: The MWM was performed in a circular pool (100 cm in diameter and 36 cm in depth) with a hidden platform (10 cm×10 cm) that was approximately 1 cm below the water surface. The pool was surrounded by yellow curtains with different shaped markers hanging in each quadrant. The time spent to find the hidden platform and the trajectory of the mouse were recorded by computer. From days 1 to 7, mice were placed in the pool to find the fixed hidden platform. On day 8, the platform was removed and the time that the mouse spent in the target quadrant was counted in 1 min of free swimming.
# (§1) Data analysis: The results of the test are expressed as mean±SEM. One-way ANOVA was used followed by the LSD test with SPSS 11 software. The significance level was set at P<0.05.
# [3] = system: Kunming mice; test: Elevated plus maze (EPM) test in mice; assay type: in vivo, mouse; settings: i.p. 24 h and 5 h before test
# Description: (§2) Kunming mice (Certificate Number: A4CXK(Chuan)2003-16) from the Institute of Experimental Animals, People's Hospital of Sichuan Province, were used. They were 3-4 weeks old at the beginning of the experiment and weighed 25-30 g. ORG was prepared as described in Example 1. Animals were divided into drug administration groups with different doses of ORG, a vehicle control group, and a diazepam group (Jinyao Ltd. Co., Batch No. 106k1588) as positive control.
# Elevated plus maze (EPM): The EPM had two open and two closed arms of equal size (30 cm long×5 cm wide). The two closed arms were connected by a central 5 cm×5 cm area. The whole maze was elevated to a height of 35 cm. ORG was administered i.p. 24 h and 5 h before the test started. Mice were individually placed in the center of the maze facing a closed arm. Each animal was tested for 5 min in a single session. The number of entrances into open arms, the number of entrances into closed arms, the total time spent in open arms, and the total time spent in closed arms were recorded; a standard of entry was defined as all limbs entering the arm. The number of entrances into open arms and time spent in open arms were the major indexes to evaluate the anxiety level of the animals, for the more entrances or time, the less the anxiety level.
# as §1
# [4] = system: SD model mice; test: FST in sleep deprivation (SD) model mice; assay type: in vivo, mouse
# Description: Kunming mice (Certificate Number: A4CXK(Chuan)2003-16) from the Institute of Experimental Animals, People's Hospital of Sichuan Province, were used. They were 3-4 weeks old at the beginning of the experiments and weighed 25-30 g. ORG was prepared as described in Example 1. Animals were divided into experiment groups with different doses, a vehicle control group, and an imipramine group (Sigma, Batch No. 1061c1588) as positive control.
# SD model: A modified method with multiple platforms in a water environment was used to establish the SD model in mice. Mice on the platforms were free to eat and drink. However, if it fell asleep, it fell into the water because of the loss of muscle tone. The fallen animal climbed onto the platform again via a tilt pole which propped up the platforms. After 72 h of sleep deprivation, ORG was administered orally 24 h and 5 h before the FST started. The immobility time of animals were recorded. Methods and data analysis were as described above.
# [5] = system: Kunming mice; test: Acute toxicity test of ORG in mice; assay type: in vivo; settings: mice, 1750 mg/kg oral
# Description: (§3) Kunming mice (Certificate Number: A4CXK(Chuan)2003-16) from the Institute of Experimental Animals, People's Hospital of Sichuan Province, were used. They were 3-4 weeks old and at the beginning of the experiment and weighed 25-30 g. ORG was prepared as described in Example 1. ORG (1750 mg) was dissolved in 10 ml NS to give a concentration of 175 mg/ml. Mice were divided into two groups, the ORG group for evaluation was given ORG and a group was treated with NS for vehicle control. ORG and NS were given to each group orally at a volume of 0.1 ml/10 g.
# [6] = Acute toxicity test of ORG in mice; assay type: in vivo; settings: mouse, in vivo, 1750 mg/kg; acute toxicity test, Kunming mice, oral; read-out: median toxic dose (TD50)
# Description: as §3
# [7] = system: rats; test: Conditioned fear stress-induced freezing behavior test in rats; assay type: in vivo, rat; settings: i.p. 24 h and 5 h before footshocks, re-exposure 24 h later
# Description: as §2
# Footshock-induced freezing behavior: Animals received an i.p. injection of ORG or vehicle 24 h and 5 h before being placed in a standard conditioning chamber (Med Associates, USA) for a 10 min training session. Two, 4, 6, 8, and 10 min after the onset of the session, a footshock (0.8 mA, 2 s) was delivered through the grid floor of the chamber. The freezing time during the last 5 min were recorded. Rats were placed in the chamber again without footshock 24 h after the first training, and the freezing time was recorded.
# as §1
smiles,measurement,setting,value
"Cc1cc(O)cc(OC2OC(CO)C(O)C(O)C2O)c1 [ORG, orcinol-1-O-β-D-glucopyranoside]",Concentration of serum corticosterone (ng/ml) (mean ± SEM),"[1]; non-stress rats, i.p., 3.5 mg/kg",166.06 ± 41.90 ng/mL
same,Concentration of serum corticosterone (ng/ml) (mean ± SEM),"[1]; non-stress rats, i.p., 14 mg/kg",70.04 ± 14.75 ng/mL
same,Concentration of serum corticosterone (ng/ml) (mean ± SEM),"[1]; non-stress rats, i.p., 28 mg/kg",63.13 ± 22.21 ng/mL
same,Concentration of serum corticosterone (ng/ml) (mean ± SEM),"[1]; non-stress rats, i.p., blood 1 h after injection, 0.875 mg/kg",209.02 ± 52.77 ng/mL
same,Concentration of serum corticosterone (ng/ml) (mean ± SEM),"[1]; stress rats (elevated platform 30 min, 1 h after i.p. injection), 0.875 mg/kg",349.85 ± 61.75 ng/mL
same,Concentration of serum corticosterone (ng/ml) (mean ± SEM),"[1]; stress rats, i.p., 3.5 mg/kg",263.63 ± 49.14 ng/mL
same,Concentration of serum corticosterone (ng/ml) (mean ± SEM),"[1]; stress rats, i.p., 14 mg/kg",237.63 ± 32.45 ng/mL
same,Concentration of serum corticosterone (ng/ml) (mean ± SEM),"[1]; stress rats, i.p., 28 mg/kg",137.41 ± 26.84 ng/mL
same,Time spent in the right quadrant (s) (mean ± SEM),"[2]; i.p. 30 min before retrieval on day 8, 1.75 mg/kg",29.38 ± 2.16 s
same,Time spent in the right quadrant (s) (mean ± SEM),"[2]; i.p. 30 min before retrieval on day 8, 3.5 mg/kg",35.52 ± 2.43 s
same,Time spent in the right quadrant (s) (mean ± SEM),"[2]; i.p. daily 30 min after training, retention test day 8, 1.75 mg/kg",28.18 ± 1.70 s
same,Time spent in the right quadrant (s) (mean ± SEM),"[2]; i.p. daily 30 min after training, retention test day 8, 3.5 mg/kg",34.24 ± 2.01 s
same,Number of entries into open arms (mean ± SEM),[3]; 5 mg/kg,4.50 ± 0.58
same,Total time spent in the open arms (s) (mean ± SEM),[3]; 5 mg/kg,50.00 ± 8.99 s
same,Number of entries into open arms (mean ± SEM),[3]; 20 mg/kg,1.80 ± 0.79
same,Total time spent in the open arms (s) (mean ± SEM),[3]; 20 mg/kg,16.50 ± 3.60 s
same,Number of entries into open arms (mean ± SEM),[3]; 100 mg/kg,5.90 ± 0.57
same,Total time spent in the open arms (s) (mean ± SEM),[3]; 100 mg/kg,70.60 ± 11.56 s
same,dose of the best efficacy,"[4]; FST, SD model mice, ORG oral twice",10 mg/kg
same,ED50,"[4]; Mus musculus, FST, SD model mice, ORG oral twice",~3.79 mg/kg
same,therapeutic index = TD50÷ED50,"[4]; SD mice, FST",> 462
same,Immobility time (s) (mean ± SEM),"[4]; SD model mice (72 h sleep deprivation), oral 24 h and 5 h before FST, 1.25 mg/kg",198.00 ± 11.43 s
same,Immobility time (s) (mean ± SEM),"[4]; SD model mice, 24 h and 5 h before FST, 7.5 mg/kg",153.00 ± 11.83 s
same,Immobility time (s) (mean ± SEM),"[4]; SD model mice, oral 24 h and 5 h before FST, 2.5 mg/kg",177.67 ± 15.95 s
same,Immobility time (s) (mean ± SEM),"[4]; SD model mice, oral 24 h and 5 h before FST, 5 mg/kg",160.80 ± 11.64 s
same,Immobility time (s) (mean ± SEM),"[4]; SD model mice, oral 24 h and 5 h before FST, 10 mg/kg",148.23 ± 7.80 s
same,Immobility time (s) (mean ± SEM),"[4]; SD model mice, oral 24 h and 5 h before FST, 20 mg/kg",162.67 ± 9.27 s
same,acute toxicity: survival,[5]; 14 days,All mice survived
same,acute toxicity: weight gain,[5]; 14 days,the weight gain was normal
same,"acute toxicity: appearance, behavior, mental status, appetite, hair, color, breathing (ethological investigation)","[5]; observed for 14 days, 1750 mg/kg",did not find abnormalities; also recorded: nothing abnormal was found
same,acute toxicity: pathological section of visceral organs,[5]; sacrificed on day 14,no evident abnormalities
same,TD50,[6],> 1750 mg/kg
same,Duration of freezing (s) (mean ± SEM),[7]; 5 mg/kg,310.30 ± 66.19 s
same,Duration of freezing (s) (mean ± SEM),[7]; 20 mg/kg,95.00 ± 17.73 s
